Holding throughout (assay): NCI tumour cell line growth inhibition, 48 h
Experiment [1] deals with SK-MEL-2.
The test system of experiment [2] is T47D.
In experiment [3] the test system is HOP-62.
In experiment [4] the test system is DU-145.
In experiment [5] the test system is PC-3.
For experiment [6], the system named is SK-OV-3.
Experiment [7] has as its system COLO 205.
The subject of experiment [8] is MDA-N.
The test system of experiment [9] is A549.
The subject of experiment [10] is LOX IMVI.
Experiment [11] has as its system RPMI-8226.
The test system of experiment [12] is KM12.
The subject of experiment [13] is NCI-H522.
Experiment [14] has as its system OVCAR-4.
Experiment [15] concerns NCI-H226.
The subject of experiment [16] is SR.
Experiment [17] relates to SW-620.
The subject of experiment [18] is U-251.
Experiment [19] deals with CAKI-1.
Experiment [20] relates to ACHN.

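Growth conditions: 96-well plates. Treatment: test compound, 48 hours, 5 concentrations. Analysis: linear interpolation between bracketing concentrations; unreached endpoints set to highest concentration. Here, GI50 denotes the concentration required for 50% inhibition of growth.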 The source made the active and inactive calls. Cut-off read from the data, not from the text of the source: active = GI50 up to about 1.1 µM and inactive = higher.

In the case of `O=S1(=O)C(c2ccccc2)C(N2CCCCC2)C1C1CC2c3ccccc3C1c1ccccc12` (stereo not given), the GI50 is > 100 µM (inactive) in experiment [1]; 10.4 µM (inactive) in experiment [2]; > 100 µM (inactive) in [3]; > 100 µM (inactive) in experiment [4]; > 30 µM (inactive) in experiment [5]; > 100 µM (inactive) in [6]. Further, the GI50 is 14.8 µM (inactive) in experiment [7]; > 100 µM (inactive) in experiment [8]; 8.17 µM (inactive) in experiment [9]; > 100 µM (inactive) in experiment [10]; 4.5 µM (inactive) in experiment [11]; 23.3 µM (inactive) in [12]. Moreover, the GI50 in experiment [13] was 9.95 µM (inactive); in [14], 7.98 µM (inactive); in experiment [15], > 100 µM (inactive); in experiment [16], 5.93 µM (inactive); in [17], > 28.4 µM (inactive); in experiment [18], > 85.1 µM (inactive). The GI50 in experiment [19] and in [20] was > 100 µM (inactive) each time.
In the case of `O=C(NCCSSCCNC(=O)/C(Cc1ccc(O)c(Br)c1)=N/O)/C(Cc1ccc(O)c(Br)c1)=N/O` [PSAMMAPLIN A], the GI50 in [1] was 1.1 µM (active); in experiment [2] it was 3.71 µM (inactive); in [3], 0.885 µM (active); in [4], 1.89 µM (inactive); in experiment [5], 1.61 µM (inactive); in [6], 0.933 µM (active). In addition, the GI50 was 1.64 µM (inactive) in experiment [7]; 1.6 µM (inactive) in [8]; 1.44 µM (inactive) in experiment [9]; 1.3 µM (inactive) in [10]; 1.36 µM (inactive) in [11]; 1.47 µM (inactive) in experiment [12]. Besides, the GI50 was 0.682 µM (active) in experiment [13]; 3.1 µM (inactive) in [14]; 9.82 µM (inactive) in experiment [15]; 0.38 µM (active) in [16]; 1.64 µM (inactive) in [17]; 1.1 µM (active) in [18]. Further, the GI50 in experiment [19] was 1.47 µM (inactive); in experiment [20], 1.62 µM (inactive).
As for `O=NN(CCCl)C(=O)NC1CCC(=O)NC1=O` (stereo not given), the GI50 is 225 µM (inactive) in [1]; 384 µM (inactive) in experiment [2]; 144 µM (inactive) in [3]; 337 µM (inactive) in experiment [4]; 745 µM (inactive) in experiment [5]; 526 µM (inactive) in [6]. Further, the GI50 was 267 µM (inactive) in experiment [7]; 224 µM (inactive) in experiment [8]; 182 µM (inactive) in experiment [9]; 48.2 µM (inactive) in [10]; 220 µM (inactive) in experiment [11]; 212 µM (inactive) in [12]. Besides, the GI50 was 225 µM (inactive) in experiment [13]; 893 µM (inactive) in experiment [14]; 232 µM (inactive) in [15]; 25.4 µM (inactive) in experiment [16]; 67.8 µM (inactive) in experiment [17]; 52.8 µM (inactive) in experiment [18]. The GI50 is 270 µM (inactive) in experiment [19] and 428 µM (inactive) in [20].
As for `Cc1ccc(C2SC(=N)Nc3c2c(C)nn3C(=O)c2ccncc2)cc1` (stereo not given), the GI50 in [1], in experiment [2], in experiment [3], in [4], in experiment [5] and in experiment [6] was > 10 µM (inactive) in each case. Further, the GI50 in experiment [7], in experiment [8], in [9], in experiment [10], in experiment [11] and in experiment [12] was > 10 µM (inactive) in each case. In addition, the GI50 in [13], in [14], in [15], in experiment [16], in experiment [17] and in experiment [18] was > 10 µM (inactive) throughout. The GI50 in experiment [19] and in experiment [20] was > 10 µM (inactive) each time.
`CCOc1cc(C2CC(c3ccc(NS(=O)(=O)c4cc([N+](=O)[O-])ccc4C)cc3)=NN2c2ccc([N+](=O)[O-])cc2[N+](=O)[O-])ccc1O` (stereo not given): the GI50 in [1] is 19.5 µM (inactive); in [2], 9.68 µM (inactive); in experiment [3], 10.7 µM (inactive); in experiment [4], 12.8 µM (inactive); in experiment [5], 20 µM (inactive); in experiment [6] it was 3.43 µM (inactive). Also, the GI50 in experiment [7] was 17.7 µM (inactive); in experiment [8], 12.2 µM (inactive); in [9], 6.55 µM (inactive); in experiment [10] it was 16.6 µM (inactive); in [11], 11.3 µM (inactive); in [12] it was 11 µM (inactive). Besides, the GI50 is 10.4 µM (inactive) in experiment [13]; 3.3 µM (inactive) in [14]; 7.31 µM (inactive) in experiment [15]; 28.5 µM (inactive) in [16]; 21.8 µM (inactive) in [17]; 9.48 µM (inactive) in experiment [18]. The values for the GI50 in experiment [19] and in [20] were 16.9 µM (inactive) and 6.76 µM (inactive), respectively.
With `CC1=NN(c2nc(N)nc(NS(=O)(=O)c3cc(C)c(Cl)cc3S)n2)C(C)(C)C1`, the GI50 in [1], in experiment [2], in experiment [3], in [4], in experiment [5] and in experiment [6] was > 10 µM (inactive) throughout. In addition, the GI50 in experiment [7], in experiment [8], in experiment [9], in experiment [10], in [11] and in [12] was > 10 µM (inactive) throughout. The GI50 in [13], in [14], in experiment [15], in experiment [16], in experiment [17] and in [18] was > 10 µM (inactive) in each case. Besides, the GI50 in experiment [19] and in experiment [20] was > 10 µM (inactive) each time.
For the compound `COC(=O)C1SC(SC)=NC12c1ccccc1Nc1ccccc12` (stereo not given), the GI50 in experiment [1] is 21.5 µM (inactive); in experiment [2] it was 32.2 µM (inactive); in experiment [3], 41.8 µM (inactive); in experiment [4], 36.4 µM (inactive); in [5], 28.3 µM (inactive); in [6] it was 45.8 µM (inactive). Further, the GI50 was 20.5 µM (inactive) in experiment [7]; 26.8 µM (inactive) in [8]; 28.3 µM (inactive) in [9]; 18 µM (inactive) in experiment [10]; 21.2 µM (inactive) in experiment [11]; 41.7 µM (inactive) in experiment [12]. Moreover, the GI50 is 19.5 µM (inactive) in experiment [13]; 32.7 µM (inactive) in [14]; 53.6 µM (inactive) in experiment [15]; 17.5 µM (inactive) in experiment [16]; 36.6 µM (inactive) in [17]; 25.2 µM (inactive) in experiment [18]. The GI50 was 37.3 µM (inactive) in experiment [19] and 36.3 µM (inactive) in experiment [20].
Consider `Nc1ncn(C2OC(COP(=O)(O)O)C(O)C2O)c(=O)n1` (stereo not given), for which the GI50 in experiment [1] was > 100 µM (inactive); in experiment [2] it was > 100 µM (inactive); in [3] it was > 77.4 µM (inactive); in experiment [4] it was > 100 µM (inactive); in [5], > 100 µM (inactive); in [6], > 100 µM (inactive). The GI50 in [7] is > 100 µM (inactive); in experiment [8], > 100 µM (inactive); in experiment [9] it was 45.9 µM (inactive); in [10] it was > 100 µM (inactive); in experiment [11] it was > 100 µM (inactive); in experiment [12], > 100 µM (inactive). Moreover, the GI50 in experiment [13] is > 87.9 µM (inactive); in experiment [14], > 100 µM (inactive); in experiment [15] it was > 100 µM (inactive); in [16], > 91.6 µM (inactive); in experiment [17], > 100 µM (inactive); in experiment [18], > 100 µM (inactive). The GI50 in experiment [19] is > 71.9 µM (inactive); in experiment [20], 54.6 µM (inactive).
As to `Nc1nc(Cl)cc(NCC2(CO)CC(CCc3ccccc3)C2)n1` (stereo not given), the GI50 is 97.9 µM (inactive) in experiment [1]; 0.542 µM (active) in experiment [2]; > 37.6 µM (inactive) in experiment [3]; > 100 µM (inactive) in experiment [4]; 73.8 µM (inactive) in experiment [5]; > 100 µM (inactive) in experiment [6]. Also, the GI50 was > 71.9 µM (inactive) in experiment [7]; > 100 µM (inactive) in [8]; 9.16 µM (inactive) in experiment [9]; 3.26 µM (inactive) in experiment [10]; 2.9 µM (inactive) in experiment [11]; 83.9 µM (inactive) in experiment [12]. The GI50 was 17.6 µM (inactive) in experiment [13]; > 29.3 µM (inactive) in experiment [14]; > 100 µM (inactive) in [15]; 1.31 µM (inactive) in experiment [16]; > 100 µM (inactive) in experiment [17]; > 100 µM (inactive) in [18]. Besides, the GI50 in experiment [19] is > 100 µM (inactive); in experiment [20], > 29 µM (inactive).
With `O=C1C(NCCc2ccc(O)c(O)c2)=CC(=O)c2ncccc21`, the GI50 in experiment [1] is 3.1 µM (inactive); in experiment [2], 22.7 µM (inactive); in [3], 19.2 µM (inactive); in experiment [4] it was 9.86 µM (inactive); in experiment [5], 21.9 µM (inactive); in experiment [6], 15.7 µM (inactive). In addition, the GI50 was 14.7 µM (inactive) in experiment [7]; 2.03 µM (inactive) in experiment [8]; 14.9 µM (inactive) in experiment [9]; 4.45 µM (inactive) in experiment [10]; 16.6 µM (inactive) in experiment [11]; 13.2 µM (inactive) in experiment [12]. Besides, the GI50 was 2.36 µM (inactive) in [13]; 16.9 µM (inactive) in [14]; 13.7 µM (inactive) in experiment [15]; 9.98 µM (inactive) in experiment [16]; 14.4 µM (inactive) in experiment [17]; 4.3 µM (inactive) in experiment [18]. Besides, the values for the GI50 in experiment [19] and in experiment [20] were 5.52 µM (inactive) and 11.1 µM (inactive), respectively.

For the origin of these results see ChEMBL document CHEMBL1201862, “PubChem BioAssay data set” (2004).
